From patent US9388120B2, “Nitrogen and hindered phenol containing dual functional macromolecular antioxidants: synthesis, performances and applications” (Polnox Corporation, priority 2005, dated 2016)

Columns and labels:
[1] = Oxidative induction time (OIT) by DSC in polyol ester based base stock oil; conditions: antioxidant at 200 ppm in polyester based base stock; DSC at 200° C., oxygen at 20 ml/min
Description: (§1) Macromolecules V and A were tested for their performance in lubricant oils and polymers. The macromolecules were mixed in oil with stirring at 60° C. for 5-15 mins at 200 ppm in petroleum based Group II base stock and polyol based Group V base stock oils. The performance of these antioxidants were evaluated in lubricant base oil stocks including Group II using the DSC technique for determining their oxidation induction times measured in minutes (OIT) at 200° C. The OITs of the antioxidants having structures V and A were compared with commercial antioxidants [L57: Ciba's Irganox L57, 6PPD: N-hexyl phenyl-1,4-phenylene diamine CAS #793-24-8)].
The summary of performance of antioxidants I, II, V, X, XVIII and A and their comparison with commercial antioxidants L 57 and 6PPD in synthetic polyol ester based oil is shown in Table 1. The macromolecules were mixed in oil with stirring at 60° C. for 5-15 mins at 200 ppm in petroleum based Group II base stock and polyol based Group V base stock oils.

[2] = Oxidative induction time (OIT) by DSC in Group II lubricating base oil; conditions: 200 ppm; for OIT performance (FIG. 2) compared with commercial antioxidants: GII base oil, DSC at 200° C., versus L57 and 6PPD
Description: Macromolecule A was mixed with oil at 60° C. for 5-15 minutes at 200 ppm in petroleum based group II base stock oil and polyol based Group V base stock oils. It was tested using differential scanning calorimetry (DSC). Its Oxidative Induction Time (OIT) was also compared with commercially used antioxidants 2,6-di-tert-butyl-phenol, Naugalube APAN (PANA) and Vanlube 81 (DODP).
as §1

[3] = Solubility in Group II lubricant oil base stock; assay type: physicochemical; conditions: 10 g in 90 g Group II lubricant oil base stock, stirred 15 mins at 60° C.; industry standard 1-2%
Description: [drawing 67] 10 g of the antioxidant V was added to 90 g of Group II lubricant oil base stock in a beaker. […] This solubility is much higher than the typical industry standards of 1-2%.

Compound	OIT @ 200 ppm [1]	OIT performance (FIG. 2) compared with commercial antioxidants [2]	protection of lubricating oils against oxidation (OIT, FIG. 1) compared with commercial antioxidants ([2]; Group II lubricating oil, DSC, versus 2,6-di-tert-butyl-phenol, Naugalube APAN (PANA), Vanlube 81 (DODP))	solubility in Group II base stock [3]
CC(C)(C)c1cc(CNc2ccc(Nc3ccccc3)cc2)c(O)c(C(C)(C)C)c1 [A]	37 min	superior performance	superior	–
CC(C)CC(C)Nc1ccc(Nc2ccccc2)cc1 (centres unmarked) [Antioxidant 6PPD, N-hexyl phenyl-1,4-phenylene diamine, reference compound]	22 min	–	–	–
Cc1cc(CNc2ccc(Nc3ccccc3)cc2)cc(C(C)(C)C)c1O [X]	28 min	–	–	–
CC(C)CC(C)N(Cc1cc(C(C)(C)C)c(O)c(C(C)(C)C)c1)c1ccc(Nc2ccccc2)cc1 (centres unmarked) [V]	36 min	superior performance	–	homogenous solution
